Legend:
p53 null H1299 cells = experiment: p53-responsive reporter assay in p53 null cells; assay type: cell-based
Excerpt: (§1) Bars represent folds of p53 responsive reporter induction over untreated controls. Box represents western blot analysis of p53 expression in total protein lysates of both cells variants in basal and doxorubicin treated conditions (to evaluate basal and DNA-damage induced level of p53). […] Fold induction presented as fold of reporter activation over untreated control. […] Fold induction presented as fold of reporter activation over untreated control.
(§2) For cotransfection set-up, 2×10^5 cells were plated into 6 well plates and, after overnight incubation, transfected with Lipofectamin Plus reagent (Gibco BRL) with 0.5 μg of reporter plasmids (p21-ConALuc or pNF-κBLuc) in combination with different concentrations of p53, Arf, Ss-IκB, or siHDM2 expressing plasmids. Corresponding empty vectors were added into all transfections up to 2 μg of total DNA amount. […] Luciferase activity and β-galactosidase activity was measured in lysates prepared 48 hours after transfection with Cell Lysis Buffer (Promega) by luciferase assay system (Promega) or β-galactosidase enzyme system (Promega). Luminometric and colorimetric reactions were read on the Wallack 1420 plate reader (Perkin Elmer). […] Luciferase or β-galactosidase activity and protein concentration were measured in aliquots of cell lysates using standard kits (Promega, Luciferase and β-galactosidase assay systems, Biorad Protein Assay Kit).

MCF7ConALacZ cells = experiment: p53-responsive reporter assay in MCF7 cells; assay type: cell-based; conditions: compared with doxorubicin
Excerpt: as §1, §2

RCC45ConALacZ cells = experiment: p53-responsive reporter (ConALacZ) β-galactosidase assay in RCC45 cells; assay type: cell-based; conditions: compared with doxorubicin
Protocol: 2×10^4 of RCC45ConALacZ cells were plated into wells of 96 well plates in 200 μL of phenol-red free RPMI medium with standard additives. After overnight incubation library of chemical compounds in DMSO solution together with controls was added with the help of plastic bacterial replicators (200+/−100 nL). Final concentration of compounds was around 5 μg/ml. Negative control was DMSO, positive control was doxorubicin solution (0.2, 0.6 and 2 μM). After 24 hours lysis buffer with ONPG was added directly to the medium on ice. After 3 hours of incubation at 37° C., β-galactosidase activity was estimated by reading absorbance values Wallack 1420 plate reader (Perkin Elmer) at λ=430 nm.
For cotransfection set-up, 2×10^5 cells were plated into 6 well plates and, after overnight incubation, transfected with Lipofectamin Plus reagent (Gibco BRL) with 0.5 μg of reporter plasmids (p21-ConALuc or pNF-κBLuc) in combination with different concentrations of p53, Arf, Ss-IκB, or siHDM2 expressing plasmids. […] Luciferase activity and β-galactosidase activity was measured in lysates prepared 48 hours after transfection with Cell Lysis Buffer (Promega) by luciferase assay system (Promega) or β-galactosidase enzyme system (Promega). Luminometric and colorimetric reactions were read on the Wallack 1420 plate reader (Perkin Elmer). […]

[1] = system: normal kidney epithelial cells and human diploid fibroblasts WI38; experiment: Cell survival assay in normal cells; assay type: cell-based
Protocol: The same experiment as described in FIG. 4A was performed with NKE, RCC45, RCC54 and ACHN cells.
5×10^3 of cells were plated in 6 well plates and treated with different concentrations of drugs for 24 hours. Then fresh drug-free medium was added. Number of colonies was estimated after 5-6 days of incubation. Cell survival was estimated as a percentage of intensity of methylene blue staining of treated cells, comparing with untreated control (methylene blue from stained colonies was extracted by 0.1% of SDS and quantitated spectrophotometrically).

IκB = experiment: Western blot of IκB level and phosphorylation; assay type: cell-based; conditions: PC-3 cells, 10 μM; MCF7 cells
Protocol: (§3) Western blot analysis of total protein lysates was performed using antibodies against p53 (DO1) and against specific sites of phosphorylation in p53. […] HCT116 cells were treated for 30 minutes with 1 μM PS-341. PS-341 was washed off after 30 minutes and cells were re-incubated in drug free medium prior to analysis at 3 hours or 16 hours post-treatment. […] Proteasome activity was determined by measuring the absorbance of free AMC generated by cleavage of an AMC-fluorogenic peptide. The proteasome activity of untreated cells was set at 100%. […] Cell lysates were isolated at the indicated hours after treatment and used for western blotting. […]
(§4) Cells were lysed in RIPA buffer (25 mM Tris HCl, pH7.2, 125 mM NaCl, 1% NP40, 1% sodium deoxycholate, 1 mM EDTA) containing 1 mM PMSF (Sigma), 10 μg/ml of aprotinin (Sigma) and 10 μg/ml of leupeptin (Sigma). Protein concentrations were determined with BioRad Dc protein assay kit. […] The following antibodies were used: anti-p53—monoclonal mouse DO1 (Santa-Cruz), anti-p21—monoclonal mouse F-5 (Santa-Cruz), anti-mdm2—monoclonal mouse SMP14 (Santa-Cruz). p53 phosphorylation status was analyzed using phospho-p53 sampler kit from Cell signaling according to manufacturer's recommendations, anti-p65—(C20, Santa Cruz), anti-phospho-p65—(ser536, Cell Signaling), anti-IκBa—(C21, Santa Cruz), anti-p50—(NLS, Santa Cruz). […]

p53 = experiment: Western blot of p53 phosphorylation status in RCC45 cells; assay type: cell-based; conditions: 9AA 5 μM or dox 1 μM, 16 hours
Protocol: as §3, §4

[2] = system: HT1080 sip53 or HT1080 siGFP cells; experiment: Cell cycle analysis; assay type: cell-based, human
RCC54 = experiment: Global gene expression profile by microarray hybridization, RCC54; assay type: cell-based; conditions: 36847 genes; at least in one dose (2 μM, 10 μM) in both cell lines RCC45 and RCC54; 16 hours
Protocol: RNA was isolated after 16 hours of treatment that was enough to induce p53 but before appearance of signs of cell death. Among the 36847 genes represented on the array, only 0.6% changed their mRNA abundance by at least a factor of 2 at least in one dose in both cell lines.

RCC cell lines = experiment: Restoration of p53-mediated transactivation in RCC cell lines; assay type: cell-based; conditions: data not shown

Q: Which “stimulation of p53 reporter activity” value (p53 null H1299 cells) does the source give for `Nc1c2ccccc2nc2ccccc12` [9AA, 9-aminoacridine] here?
A: Its value is “no stimulation of reporter activity”.

Q: What about the “induction of p53 reporter and p53-responsive genes (in words)” value (MCF7ConALacZ cells) of the same molecule?
A: Its value is “weaker than that of doxorubicin”.

Q: What about the “p53 reactivation / reporter induction (in words)” value (RCC45ConALacZ cells) of the same molecule?
A: The value was “much stronger than doxorubicin”.

Q: What about the “sensitivity of normal cells compared with RCC and other tumor cells” value [1] of the same molecule?
A: The value was “more resistant to 9AA”.

Q: What about the “level of IκB” value (IκB) of the same molecule?
A: Its value is “gradual decrease followed by complete disappearance of IκB”.

Q: What about the p53 phosphorylation status (p53) of the same molecule?
A: The p53 phosphorylation status was “did not affect”.

Q: And the “effect on cell cycle” value ([2]; 3 μM)?
A: Its value is “p53-dependent growth arrest”.

Q: What about the “effect on cell cycle” value ([2]; 20 μM) of the same molecule?
A: Its value is “apoptosis”.

Q: And the “genes that changed mRNA abundance by at least a factor of 2” value (RCC54)?
A: Its value is 0.6%.

Q: What about the “RCC cell lines with restored p53-mediated transactivation” value (RCC cell lines) of the same molecule?
A: The value was 9 out of 10.

— US20070270455A1, “INHIBITION OF NF-kB” (priority 2005, published 2007)
